According to BindingDB's records for PubMed 2419545 (National Institutes of Health, 1986):
Positions count from the first letter of the chain named. pKi: −log10 of the molar value. Several values for one entry are separate records, joined by “and”; a condition that tells them apart may be missing. Identical values can stand only once. Residues, ends and D or L forms follow the SMILES beside them.

What was measured:
Eledoisin = Eledoisin (Eledone moschata, UniProt P62934)
[1] = target: Class E basic helix-loop-helix protein 22 (Mus musculus, UniProt Q8C6A8)
Chain of Class E basic helix-loop-helix protein 22 (Q8C6A8 whole entry): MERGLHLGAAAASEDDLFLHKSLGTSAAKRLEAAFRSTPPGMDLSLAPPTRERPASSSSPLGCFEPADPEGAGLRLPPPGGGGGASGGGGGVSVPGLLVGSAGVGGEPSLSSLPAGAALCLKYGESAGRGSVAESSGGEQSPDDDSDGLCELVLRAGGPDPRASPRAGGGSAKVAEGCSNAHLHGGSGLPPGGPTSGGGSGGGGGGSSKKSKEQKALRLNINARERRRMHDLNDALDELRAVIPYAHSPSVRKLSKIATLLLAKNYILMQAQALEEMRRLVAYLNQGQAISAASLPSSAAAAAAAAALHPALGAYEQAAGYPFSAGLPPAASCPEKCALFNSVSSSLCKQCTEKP

ATP synthase subunit a = target: T1, ATP synthase subunit a (Rattus norvegicus, UniProt P05504)
T1 sequence (P05504 whole entry): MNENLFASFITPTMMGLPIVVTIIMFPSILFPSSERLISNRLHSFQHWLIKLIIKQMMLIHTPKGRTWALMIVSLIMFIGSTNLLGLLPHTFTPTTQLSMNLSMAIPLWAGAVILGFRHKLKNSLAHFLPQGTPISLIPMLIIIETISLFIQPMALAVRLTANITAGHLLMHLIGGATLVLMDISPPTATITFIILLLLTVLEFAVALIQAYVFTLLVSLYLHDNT

Substance-K receptor = target: T2, Substance-K receptor (Cavia porcellus, UniProt Q64077)
T2 sequence (Q64077 whole entry): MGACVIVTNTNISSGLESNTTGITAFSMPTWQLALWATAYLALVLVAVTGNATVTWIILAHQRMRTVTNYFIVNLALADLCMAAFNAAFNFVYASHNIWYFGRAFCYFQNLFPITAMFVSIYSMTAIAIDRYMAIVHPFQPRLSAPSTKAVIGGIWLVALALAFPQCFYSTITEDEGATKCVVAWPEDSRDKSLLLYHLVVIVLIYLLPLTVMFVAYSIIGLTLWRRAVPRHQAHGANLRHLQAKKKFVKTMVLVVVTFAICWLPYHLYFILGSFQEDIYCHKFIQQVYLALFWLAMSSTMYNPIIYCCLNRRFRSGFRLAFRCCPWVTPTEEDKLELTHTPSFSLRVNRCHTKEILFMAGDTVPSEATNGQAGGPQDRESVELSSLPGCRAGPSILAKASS

Substance P = Substance P (Cavia porcellus, UniProt P67932)
Protachykinin-1 [2] = target: T3, Protachykinin-1 (Mus musculus, UniProt P41539)
T3 sequence (P41539 whole entry): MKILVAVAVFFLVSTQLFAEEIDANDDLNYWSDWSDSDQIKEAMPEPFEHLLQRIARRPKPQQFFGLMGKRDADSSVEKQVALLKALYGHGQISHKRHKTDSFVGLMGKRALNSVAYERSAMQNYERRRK

Protachykinin-1 [3] = target: T4, Protachykinin-1 (Rattus norvegicus, UniProt P06767)
T4 sequence (P06767 whole entry): T3 sequence (P41539 whole entry) with D23G, V77I

| Compound | pKi (Eledoisin) | pKi [1] | pKi (ATP synthase subunit a) | pKi (Substance-K receptor) | pKi (Substance P) | pKi (Protachykinin-1 [2]) | pKi (Protachykinin-1 [3]) |
| --- | --- | --- | --- | --- | --- | --- | --- |
| CSCC[C@H](NC(=O)[C@H](CC(C)C)NC(=O)CNC(=O)[C@H](Cc1ccccc1)NC(=O)[C@H](Cc1ccccc1)NC(=O)[C@H](CCC(N)=O)NC(=O)[C@H](CCC(N)=O)NC(=O)[C@@H]1CCCN1C(=O)[C@H](CCCCN)NC(=O)[C@@H]1CCCN1C(=O)[C@@H](N)CCCN=C(N)N)C(N)=O [Arg-Pro-Lys-Pro-Gln-Gln-Phe-Phe-Gly-Leu-Met NH2] | 7.72 | 7.33 | 6.97 and 7.68 | 6.70 | 9.70 | – | – |
| CSCC[C@H](NC(=O)[C@H](CC(C)C)NC(=O)CNC(=O)[C@H](Cc1ccc(O)cc1)NC(=O)[C@H](Cc1ccccc1)NC(=O)[C@H](CCCCN)NC(=O)[C@H](CC(N)=O)NC(=O)[C@@H]1CCCN1C(=O)[C@H](CC(=O)O)NC(=O)[C@H](C)NC(=O)[C@@H]1CCC(=O)N1)C(N)=O [physalaemin] (HELM PEPTIDE1{[Glp].A.D.P.N.K.F.Y.G.L.M.[am]}$$$$V2.0) | 7.85 | 7.77 | 7.64 and 7.52 | 6.47 | 9.15 | 6.76 | – |
| CSCC[C@H](NC(=O)[C@H](CC(C)C)NC(=O)CNC(=O)[C@@H](NC(=O)[C@H](Cc1ccccc1)NC(=O)[C@H](Cc1ccccc1)NC(=O)[C@H](CC(=O)O)NC(=O)[C@H](Cc1c[nH]cn1)NC(=O)[C@H](CCSC)NC(=O)[C@@H](N)CC(=O)O)C(C)C)C(N)=O [NSC_5311312] | 7.77 | 8.00 | 8.33 and 8.22 | 6.70 | 7.46 | 7.70 and 7.10 | 7.30 and 7.25 |
| CSCC[C@H](NC(=O)[C@H](CC(C)C)NC(=O)CNC(=O)[C@@H](NC(=O)[C@H](Cc1ccccc1)NC(=O)[C@H](CO)NC(=O)[C@H](CC(=O)O)NC(=O)[C@@H](NC(=O)[C@H](CCCCN)NC(=O)[C@@H](N)Cc1cnc[nH]1)[C@@H](C)O)C(C)C)C(N)=O [Neurokinin alpha] | 8.00 | 9.30 | – | 8.89 | 8.10 | 9.00 and 8.40 | 8.89 and 8.34 |

These reach a higher pKi (Eledoisin). Values come first.

| pKi (Eledoisin) | pKi [1] | pKi (ATP synthase subunit a) | pKi (Substance-K receptor) | pKi (Substance P) | pKi (Protachykinin-1 [2]) | pKi (Protachykinin-1 [3]) | Compound |
| --- | --- | --- | --- | --- | --- | --- | --- |
| 8.66 | – | 8.38 and 8.52 | 7.82 | 8.05 | 8.05 and 8.30 | 7.80 and 8.05 | CC[C@H](C)[C@H](NC(=O)[C@H](Cc1ccccc1)NC(=O)[C@H](C)NC(=O)[C@H](CC(=O)O)NC(=O)[C@H](CCCCN)NC(=O)[C@H](CO)NC(=O)[C@@H]1CCCN1C(=O)[C@@H]1CCC(=O)N1)C(=O)NCC(=O)N[C@@H](CC(C)C)C(=O)N[C@@H](CCSC)C(N)=O (HELM PEPTIDE1{[Glp].P.S.K.D.A.F.I.G.L.M.[am]}$$$$V2.0) |
| 8.59 | 9.30 | 8.39 and 8.72 | 7.96 | 8.05 | 8.15 | 8.22 and 8.05 | H-DVPKSDQFVGLM-NH2 [CAS_45749] |
